In brackets after ≈: the same amount, converted by molar mass.
Columns and labels:
Moraxella catarrhalis [1] = assay: Antibacterial activity against Moraxella catarrhalis BCA 19-5 assessed as inhibition of bacterial growth incubated for 24 hrs by CLSI based broth microdilution method; type: functional; conditions: Moraxella catarrhalis, BCA 19-5, 24 h, read-out: MIC
[2] = test system: Staphylococcus epidermidis; assay: Antibacterial activity against erythromycin-resistant Staphylococcus epidermidis 19-5 assessed as inhibition of visible bacterial growth incubated for 18 hrs by broth microdilution method; type: functional
Haemophilus influenzae [3] = assay: Antibacterial activity against Haemophilus influenzae HIN 19-15 assessed as inhibition of bacterial growth incubated for 20 to 24 hrs by CLSI based broth microdilution method; type: functional; conditions: time 20-24 hrs
[4] = Metabolic stability in human liver microsome assessed as intrinsic clearance measured at 60 mins by LC-MS/MS analysis; type: ADME; conditions: liver microsomes, read-out: CLH
[5] = test system: Staphylococcus epidermidis; assay: Antibacterial activity against erythromycin-resistant Staphylococcus epidermidis 19-4 assessed as inhibition of visible bacterial growth incubated for 18 hrs by broth microdilution method; type: functional
Moraxella catarrhalis [6] = assay: Antibacterial activity against Moraxella catarrhalis BCA 19-6 assessed as inhibition of bacterial growth incubated for 24 hrs by CLSI based broth microdilution method; type: functional
Streptococcus agalactiae [7] = assay: Antibacterial activity against erythromycin-resistant Streptococcus agalactiae 19-9 assessed as inhibition of visible bacterial growth incubated for 18 hrs by broth microdilution method; type: functional
Haemophilus influenzae [8] = assay: Antibacterial activity against Haemophilus influenzae HIN 19-18 assessed as inhibition of bacterial growth incubated for 20 to 24 hrs by CLSI based broth microdilution method; type: functional; conditions: HIN 19-18, time 20-24 hrs
[9] = Metabolic stability in human liver microsome assessed as parent compound remaining in absence of NADPH measured at 60 mins by LC-MS/MS analysis; type: ADME; conditions: liver microsomes, read-out: Stability
Streptococcus pneumoniae [10] = assay: Antibacterial activity against erythromycin-resistant Streptococcus pneumoniae SPN19-14 assessed as inhibition of visible bacterial growth incubated for 18 hrs by broth microdilution method; type: functional
[11] = Metabolic stability in human liver microsome assessed as parent compound remaining in presence of NADPH measured at 60 mins by LC-MS/MS analysis; type: ADME; conditions: liver microsomes, read-out: Stability
Streptococcus agalactiae [12] = assay: Antibacterial activity against erythromycin-resistant Streptococcus agalactiae 19-8 assessed as inhibition of visible bacterial growth incubated for 18 hrs by broth microdilution method; type: functional
[13] = Metabolic stability in human liver microsome assessed as half life measured at 60 mins by LC-MS/MS analysis; type: ADME; conditions: liver microsomes
[14] = test system: Staphylococcus epidermidis; assay: Antibacterial activity against erythromycin-resistant Staphylococcus epidermidis 19-11 assessed as inhibition of visible bacterial growth incubated for 18 hrs by broth microdilution method; type: functional
[15] = test system: Staphylococcus epidermidis; assay: Antibacterial activity against erythromycin-resistant Staphylococcus epidermidis 19-6 assessed as inhibition of visible bacterial growth incubated for 18 hrs by broth microdilution method; type: functional
Streptococcus pneumoniae [16] = assay: Antibacterial activity against erythromycin-resistant Streptococcus pneumoniae SPN19-8 assessed as inhibition of visible bacterial growth incubated for 18 hrs by broth microdilution method; type: functional
[17] = test system: Staphylococcus epidermidis; assay: Antibacterial activity against erythromycin-resistant Staphylococcus epidermidis 19-8 assessed as inhibition of visible bacterial growth incubated for 18 hrs by broth microdilution method; type: functional
[18] = Cytotoxicity against mouse AML12 cells assessed as reduction in cell viability incubated for 48 hrs by MTT assay; type: toxicity, cell-based
Moraxella catarrhalis [19] = assay: Antibacterial activity against Moraxella catarrhalis BCA 19-31 assessed as inhibition of bacterial growth incubated for 24 hrs by CLSI based broth microdilution method; type: functional; conditions: BCA 19-31, 24 h
[20] = test system: Staphylococcus epidermidis; assay: Antibacterial activity against erythromycin-resistant Staphylococcus epidermidis 19-9 assessed as inhibition of visible bacterial growth incubated for 18 hrs by broth microdilution method; type: functional
Streptococcus pneumoniae [21] = assay: Antibacterial activity against erythromycin-resistant Streptococcus pneumoniae SPN19-13 assessed as inhibition of visible bacterial growth incubated for 18 hrs by broth microdilution method; type: functional
Streptococcus pyogenes = assay: Antibacterial activity against erythromycin-resistant Streptococcus pyogenes ATCC 19615 assessed as inhibition of visible bacterial growth incubated for 18 hrs by broth microdilution method; type: functional
[22] = test system: Staphylococcus epidermidis; assay: Potency index, ratio of telithromycin MIC to test compound MIC for antibacterial activity against erythromycin-resistant Staphylococcus epidermidis 19-4 assessed as inhibition of visible bacterial growth incubated for 18 hrs by broth microdilution method; type: functional
Streptococcus pneumoniae [23] = assay: Potency index, ratio of telithromycin MIC to test compound MIC for antibacterial activity against Streptococcus pneumoniae SPN19-14 assessed as inhibition of visible bacterial growth incubated for 18 hrs by broth microdilution method; type: functional
[24] = test system: Staphylococcus epidermidis; assay: Potency index, ratio of telithromycin MIC to test compound MIC for antibacterial activity against erythromycin-resistant Staphylococcus epidermidis 19-5 assessed as inhibition of visible bacterial growth incubated for 18 hrs by broth microdilution method; type: functional
[25] = test system: Staphylococcus epidermidis; assay: Potency index, ratio of telithromycin MIC to test compound MIC for antibacterial activity against erythromycin-resistant Staphylococcus epidermidis 19-8 assessed as inhibition of visible bacterial growth incubated for 18 hrs by broth microdilution method; type: functional
[26] = test system: Staphylococcus epidermidis; assay: Potency index, ratio of telithromycin MIC to test compound MIC for antibacterial activity against erythromycin-resistant Staphylococcus epidermidis 19-9 assessed as inhibition of visible bacterial growth incubated for 18 hrs by broth microdilution method; type: functional
Streptococcus pneumoniae [27] = assay: Potency index, ratio of telithromycin MIC to test compound MIC for antibacterial activity against Streptococcus pneumoniae SPN19-13 assessed as inhibition of visible bacterial growth incubated for 18 hrs by broth microdilution method; type: functional
[28] = test system: Staphylococcus epidermidis; assay: Potency index, ratio of telithromycin MIC to test compound MIC for antibacterial activity against erythromycin-resistant Staphylococcus epidermidis 19-6 assessed as inhibition of visible bacterial growth incubated for 18 hrs by broth microdilution method; type: functional
Streptococcus pneumoniae [29] = assay: Potency index, ratio of telithromycin MIC to test compound MIC for antibacterial activity against Streptococcus pneumoniae SPN19-8 assessed as inhibition of visible bacterial growth incubated for 18 hrs by broth microdilution method; type: functional
[30] = test system: Staphylococcus epidermidis; assay: Potency index, ratio of telithromycin MIC to test compound MIC for antibacterial activity against erythromycin-resistant Staphylococcus epidermidis 19-11 assessed as inhibition of visible bacterial growth incubated for 18 hrs by broth microdilution method; type: functional
Haemophilus influenzae [31] = assay: Antibacterial activity against Haemophilus influenzae HIN 20-18 assessed as inhibition of bacterial growth incubated for 20 to 24 hrs by CLSI based broth microdilution method; type: functional; conditions: time 20-24 hrs
[32] = Moraxella catarrhalis, BCA 19-6, 24 h, read-out: MIC

Structure (SMILES) | MIC (Moraxella catarrhalis [1]) [µg/mL] | MIC [2] [µg/mL] | MIC (Haemophilus influenzae [3]) [µg/mL] | microsomal CLint [4] [µL/min/mg] | MIC [5] [µg/mL] | MIC (Moraxella catarrhalis [6]; [32]) [µg/mL] | MIC (Streptococcus agalactiae [7]) [µg/mL] | MIC (Haemophilus influenzae [8]) [µg/mL] | remaining at 1 h [9] [%] | MIC (Streptococcus pneumoniae [10]) [µg/mL] | remaining at 1 h [11] [%] | MIC (Streptococcus agalactiae [12]) [µg/mL] | MIC [14] [µg/mL] | MIC [15] [µg/mL] | MIC (Streptococcus pneumoniae [16]) [µg/mL] | MIC [17] [µg/mL] | CC50 at 48 h [18] [µM] | MIC [20] [µg/mL] | MIC (Streptococcus pneumoniae [21]) [µg/mL] | MIC (Streptococcus pyogenes) [µg/mL] | other results
CC[C@H]1OC(=O)[C@@](C)(F)C(=O)[C@H](C)[C@@H](O[C@@H]2O[C@H](C)C[C@H](N(C)C)[C@H]2O)[C@](C)(OC)C[C@@H](C)C(=O)[C@H](C)[C@H]2N(CCCOC(=O)Nc3cccc(C)c3)C(=O)O[C@]12C | < 0.03 | < 0.03 | 8 (≈ 9.73 µM) | 266 | < 0.03 | < 0.03 | 0.06 (≈ 0.073 µM) | 8 (≈ 9.73 µM) | 97.5 | < 0.03 | 1.2 | < 0.03 | < 0.03 | 0.03 (≈ 0.0365 µM) | 0.125 (≈ 0.152 µM) | < 0.03 | 76.8 | 0.06 (≈ 0.073 µM) | < 0.03 | < 0.03 | half-life [13]: 5.2 min; MIC (Moraxella catarrhalis [19]): < 0.03 µg/mL
CC[C@H]1OC(=O)[C@@](C)(F)C(=O)[C@H](C)[C@@H](O[C@@H]2O[C@H](C)C[C@H](N(C)C)[C@H]2O)[C@](C)(OC)C[C@@H](C)C(=O)[C@H](C)[C@H]2N(CCCOC(=O)Nc3ccc4sccc4c3)C(=O)O[C@]12C | – | < 0.03 | – | – | 0.03 (≈ 0.0347 µM) | – | 0.25 (≈ 0.289 µM) | – | – | 0.03 (≈ 0.0347 µM) | – | – | < 0.03 | 0.06 (≈ 0.0694 µM) | 0.06 (≈ 0.0694 µM) | 0.06 (≈ 0.0694 µM) | 11.6 | 1 (≈ 1.16 µM) | < 0.03 | < 0.03 | Ratio [22]: 4; Ratio (Streptococcus pneumoniae [23]): <4; Ratio [24]: 4; Ratio [25]: 4; Ratio [26]: 4; Ratio (Streptococcus pneumoniae [27]): <4; Ratio [28]: 4; Ratio (Streptococcus pneumoniae [29]): <4; Ratio [30]: 4
CC[C@H]1OC(=O)[C@@](C)(F)C(=O)[C@H](C)[C@@H](O[C@@H]2O[C@H](C)C[C@H](N(C)C)[C@H]2O)[C@](C)(OC)C[C@@H](C)C(=O)[C@H](C)[C@H]2N(CCCOC(=O)Nc3ccc4c(c3)OCO4)C(=O)O[C@]12C | < 0.03 | < 0.03 | 4 (≈ 4.7 µM) | – | 0.06 (≈ 0.0704 µM) | < 0.03 | 0.125 (≈ 0.147 µM) | – | – | < 0.03 | – | < 0.03 | < 0.03 | 0.06 (≈ 0.0704 µM) | 0.03 (≈ 0.0352 µM) | < 0.03 | 85.6 | 0.125 (≈ 0.147 µM) | < 0.03 | < 0.03 | Ratio (Streptococcus pneumoniae [23]): <4; MIC (Moraxella catarrhalis [6]; 24 h): 0.06 µg/mL (≈ 0.0704 µM); MIC (Haemophilus influenzae [31]): 8 µg/mL (≈ 9.39 µM); Ratio (Streptococcus pneumoniae [27]): <4; Ratio (Streptococcus pneumoniae [29]): <4
CC[C@H]1OC(=O)[C@@](C)(F)C(=O)[C@H](C)[C@@H](O[C@@H]2O[C@H](C)C[C@H](N(C)C)[C@H]2O)[C@](C)(OC)C[C@@H](C)C(=O)[C@H](C)[C@H]2N(CCCOC(=O)Nc3c(C)noc3C)C(=O)O[C@]12C | 0.5 (≈ 0.605 µM) | 0.03 (≈ 0.0363 µM) | 1 (≈ 1.21 µM) | 37.3 | 0.25 (≈ 0.302 µM) | 0.5 (≈ 0.605 µM) | 4 (≈ 4.84 µM) | 1 (≈ 1.21 µM) | 101 | 0.25 (≈ 0.302 µM) | 26.6 | – | 0.125 (≈ 0.151 µM) | 0.25 (≈ 0.302 µM) | 0.25 (≈ 0.302 µM) | 0.25 (≈ 0.302 µM) | > 100 | 0.5 (≈ 0.605 µM) | 0.25 (≈ 0.302 µM) | < 0.03 | MIC (Haemophilus influenzae [31]): 8 µg/mL (≈ 9.67 µM); half-life [13]: 37.2 min; MIC (Moraxella catarrhalis [19]): 0.125 µg/mL (≈ 0.151 µM)

Reference: ChEMBL document CHEMBL5543097, “Synthesis and structure-activity relationships of novel 14-membered 2-fluoro ketolides with structural modification at the C11 position” (Eur J Med Chem, 2024)
